Tests used:
[1] = tested on: influenza A virus strain fowl plague virus A/Fpv/Bratislava/79 (H7N7); format: cell-based
[2] = tested on: influenza A virus strain fowl plague virus A/Fpv/Bratislava/79; format: cell-based

Row | SMILES | virus multiplication vs cells not treated with U0126 [1] | virus multiplication vs cells not treated with SB202190 [2]
1 | N#CC(=C(N)Sc1ccccc1N)C(C#N)=C(N)Sc1ccccc1N [U0126, 1,4-diamino-2,3-dicyano-1,4-bis(2-aminophenylthio)butadiene] | significantly inhibited | –
2 | Oc1ccc(-c2nc(-c3ccc(F)cc3)c(-c3ccncc3)[nH]2)cc1 [SB202190, 4-(4-fluorophenyl)-2-(4-hydroxyphenyl)-5-(4-pyridyl) 1H-imidazole] | – | significantly inhibited

— patent publication US20100239563A1 (priority 2001, published 2010)
